Measurements: PMC3920557 (The Journal of Experimental Medicine, 2014)
Ends that are not written are not given here.

Tests used:
[1] = Solubility and aggregation of peptide; type: physicochemical
OB1 B cells = assay: ERK1/2 phosphorylation in OB1 B cells; type: cell-based, mouse; details: 0.5 µM, 1 and 3 min; AGA 17-mer 3 min (Fig. 2 B)
[2] = system: OB1-MHC class II GFP B cells; assay: Peptide internalization by confocal microscopy, OB1 MHC II GFP B cells; type: cell-based, mouse; details: Alexa Fluor 647-conjugated versions, 1 µM, 10 min, washed, confocal microscopy (Fig. 1 F)

Sequence	water solubility [1]	ERK1/2 phosphorylation, nested peptides (OB1 B cells)	antigen internalization in OB1-MHC class II GFP B cells [2]
FDKLPGFGDSIEAQGGK [FGD 17-mer]	water-soluble	–	–
FDKLPGAGASIEAQGGK [AGA 17-mer]	–	did not stimulate	did not detect any
